The values below come from patent publication US20240131032A1, “AN ACTIVITY-GUIDED MAP OF ELECTROPHILE-CYSTEINE INTERACTIONS IN PRIMARY HUMAN IMMUNE CELLS” (The Scripps Research Institute, priority 2019, published 2024).

This assay has as its target T1, TMEM173 (Homo sapiens, UniProt Q86WV6).
T1 construct: endogenous in cells; host or cells: primary human T cells
The experiment in a line: isoTOP-ABPP and TMT-ABPP cysteine engagement, TMEM173. The class given is binding. How it is done: Activated or expanded T cells were re-suspended in RPMI media supplemented with 10% FBS, L-glutamine (2 mM), penicillin (100 U/mL), and streptomycin (100 μg/mL) at 2×10^6 cells/mL. The compounds were added to cells as 1000×DMSO stocks and mixed well with the media by pipetting up and down after addition. The cells were kept at 37° C. in 5% CO2 containing incubators for 3 h (or otherwise specified times), then pelleted by centrifugation (524 g, 5 min, 4° C.), washed with cold PBS (10 mL) and transferred to Eppendorf tubes (1 mL PBS). The cells were pelleted again (524 g, 5 min, 4° C.), flash-frozen, and kept at −80° C. until further analysis.
Activated or expanded primary human T cells were re-suspended in RPMI (1×10^6 cells/mL) containing 10% fetal bovine serum (FBS), penicillin (100 U/mL), streptomycin ([…]), and L-glutamine (2 mM). […] The resulting proteomes were analyzed by competitive isotopic Tandem Orthogonal Proteolysis Activity-Based Protein Profiling (isoTOP-ABPP). […]
The heavy/light isoTOP-ABPP ratios (R values) for each unique peptide (DMSO/compound treated) were quantified with in-house CIMAGE software (Weerapana et al., 2010) using default parameters (3 MS1 acquisitions per peak and signal to noise threshold set to 2.5). Site-specific engagement of cysteine residues was assessed by blockade of IA-alkyne probe labeling. […]

T1 sequence (Q86WV6 whole entry H232R): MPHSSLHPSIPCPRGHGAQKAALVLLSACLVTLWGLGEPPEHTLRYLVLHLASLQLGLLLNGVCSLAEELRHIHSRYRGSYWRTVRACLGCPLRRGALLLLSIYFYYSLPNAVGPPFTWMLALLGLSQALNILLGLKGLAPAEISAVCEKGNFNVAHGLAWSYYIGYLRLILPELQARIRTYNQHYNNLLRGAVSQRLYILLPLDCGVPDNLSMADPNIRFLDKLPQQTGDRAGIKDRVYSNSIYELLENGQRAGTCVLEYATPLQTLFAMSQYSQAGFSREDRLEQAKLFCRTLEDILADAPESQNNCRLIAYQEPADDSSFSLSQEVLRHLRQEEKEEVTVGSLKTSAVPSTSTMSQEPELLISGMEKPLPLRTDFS

Take `C=CC(=O)N(Cc1cccc(Cl)c1Cl)c1ccc(Oc2ccccc2)c(C(F)(F)F)c1` [BPK-21]: the “labeling of C91 of TMEM173” value is reported as “direct labeling of C91”.
Take `C=CC(=O)N(Cc1cccc(Cl)n1)c1ccc(C(=O)Nc2ccccc2)nc1` [BPK-25]: the “labeling of C91 of TMEM173” value was “direct labeling of C91”.
